# According to article PMC7691360, “Synthesis of novel cytotoxic tetracyclic acridone derivatives and study of their molecular docking, ADMET, QSAR, bioactivity and protein binding properties” (Scientific Reports, 2020):
# How the values were obtained:
# MDA-MB-231 cells = assay: MTT cytotoxicity assay against MDA-MB-231; format: cell-based; conditions: Homo sapiens, 48 h, read-out: Percentage of inhibition against treated concentrations; for activity at 1 µM: MDAMB231, 1 µM; for activity at 5 µM: MDAMB231, 5 µM; for activity at 10 µM: MDAMB231, 10 µM; for activity at 25 µM: MDAMB231, 25 µM; for activity at 50 µM: MDAMB231, 50 µM
# Method: (§1) Anticancer activity of 7a–s has been evaluated by MTT [3-(4,5-dimethylthiazol-2-yl)-2,5-diphenyl-tetrazolium bromide] assay and the cell lines HT29 (ATCC: HTB-38), MDA-MB-231 (ATCC: HTB-26), HEK293T (ATCC: CRL-3216) were procured from American type cell culture collection (ATCC), Manassas, USA and other chemicals were procured from Sigma-Aldrich. Then absorbance (used as a measure of cell proliferation) was measured at 570 nm with a kinetic micro-plate reader (BioTek, Winooski, Vermont).
# (§2) Having synthesized a series of the title compounds, all of them were screened for their in vitro anticancer profiles against a panel of human colorectal adenocarcinoma (HT29), human breast adenocarcinoma (MDA-MB-231) and mutated Human embryonic kidney 293 (HEK293T) cancer cell lines by using MTT colourmetric assay as per Johan van Meerloo protocol. The three cell lines were cultured in […] medium and supplemented with 10% FBS followed by 100 units/mL penicillin/ streptomycin and were cultured at 37 °C in 5% CO2. Cell proliferation of the growing cells was measured in terms of logarithmic standards. Analytically, all the cultured cells were plated onto 96 well plates at a starting density of 10^5 cells. Then all the cells were treated with title compounds 7a–s for a period of 48 h with different concentrations. After this incubation cell proliferation inhibition was determined by MTT assay and all the experiments were conducted in triplicates and readings were presented as mean ± SD and provided in Tables 1, 2 and 3.
# HT29 cells = assay: MTT cytotoxicity assay against HT29; format: cell-based; conditions: Homo sapiens, 48 h, read-out: Percentage of inhibition against treated concentrations; for activity at 1 µM: HT-29, HT29, 1 µM; for activity at 5 µM: HT-29, HT29, 5 µM; for activity at 10 µM: HT-29, HT29, 10 µM; for activity at 25 µM: HT-29, HT29, 25 µM; for activity at 50 µM: HT-29, HT29, 50 µM
# Method: as §1, §2
# HEK293T cells = assay: MTT cytotoxicity assay against HEK293T; format: cell-based; conditions: Homo sapiens, HEK-293T, 48 h, read-out: Percentage of inhibition against treated concentrations
# Method: as §1, §2
SMILES,activity at 1 µM (MDA-MB-231 cells) [%],activity at 5 µM (MDA-MB-231 cells) [%],activity at 10 µM (MDA-MB-231 cells) [%],activity at 25 µM (MDA-MB-231 cells) [%],activity at 50 µM (MDA-MB-231 cells) [%],activity at 1 µM (HT29 cells) [%],activity at 5 µM (HT29 cells) [%],activity at 10 µM (HT29 cells) [%],activity at 25 µM (HT29 cells) [%],activity at 50 µM (HT29 cells) [%],melting point [°C],activity at 1 µM (HEK293T cells) [%],activity at 5 µM (HEK293T cells) [%],activity at 10 µM (HEK293T cells) [%],activity at 25 µM (HEK293T cells) [%],activity at 50 µM (HEK293T cells) [%]
"O=C(c1ccc(F)cc1)N1CCn2c3ccccc3c(=O)c3cccc1c32 [Compound 7r, 3-(4-Fluorobenzoyl)-2,3-dihydro-1H,7H-pyrazino[3,2,1-de]acridin-7-one]",96.33 ± 0.48,86.31 ± 0.21,78.85 ± 0.32,69 ± 0.05,40.7 ± 0.86,91.9 ± 0.93,75.12 ± 0.73,66.15 ± 0.13,55.26 ± 0.23,21.6 ± 0.24,236 to 238,97.98 ± 0.88,95.25 ± 0.68,92.81 ± 0.21,88.11 ± 0.25,51.93 ± 0.23
"Cc1cccc(C(=O)N2CCn3c4ccccc4c(=O)c4cccc2c43)n1 [Compound 7e, 3-(6-Methylpicolinoyl)-2,3-dihydropyrazino[3,2,1-de]acridin-7(1H)-one]",82.18 ± 0.79,52.9 ± 0.75,42.1 ± 0.52,15.83 ± 0.14,11.3 ± 0.22,84.9 ± 0.94,60.82 ± 0.33,49.1 ± 0.85,27.6 ± 0.35,16.3 ± 0.55,246 to 248,98.73 ± 0.97,97.08 ± 0.25,95.2 ± 0.76,91.72 ± 0.35,54 ± 0.77
"Cc1cccnc1C(=O)N1CCn2c3ccccc3c(=O)c3cccc1c32 [Compound 7g, 3-(3-Methylpicolinoyl)-2,3-dihydropyrazino[3,2,1-de]acridin-7(1H)-one]",81.56 ± 0.48,52.3 ± 0.86,41.7 ± 0.74,14.6 ± 0.34,10.6 ± 0.28,79.09 ± 0.34,58.9 ± 0.93,45.1 ± 0.54,25.5 ± 0.44,10 ± 0.91,221 to 223,95.9 ± 0.54,92.62 ± 0.31,88.84 ± 0.07,81.24 ± 0.32,48.2 ± 0.86
"Cc1ccc(C(=O)N2CCn3c4ccccc4c(=O)c4cccc2c43)nc1 [Compound 7f, 3-(5-Methylpicolinoyl)-2,3-dihydropyrazino[3,2,1-de]acridin-7(1H)-one]",83.22 ± 0.21,54.18 ± 0.35,43.7 ± 0.54,23.3 ± 0.26,13.8 ± 0.73,86.92 ± 0.24,61.4 ± 0.68,49.24 ± 0.05,29.09 ± 0.18,17.1 ± 0.65,252 to 254,92.96 ± 0.52,90.92 ± 0.52,88.07 ± 0.68,80.53 ± 0.41,47.46 ± 0.38
"O=C(c1ccc(O)cc1)N1CCn2c3ccccc3c(=O)c3cccc1c32 [Compound 7k, 3-(4-hydroxybenzoyl)-2,3-dihydro-1H,7H-pyrazino[3,2,1-de]acridin-7-one]",97.31 ± 0.74,88.16 ± 0.43,80.54 ± 0.54,70.48 ± 0.17,41.5 ± 0.91,96.6 ± 0.99,81.84 ± 0.11,74.68 ± 0.64,66.23 ± 0.18,28 ± 0.96,265 to 267,99.55 ± 0.46,97.77 ± 0.09,96.79 ± 0.17,95.46 ± 0.43,56.26 ± 0.12
"O=C(c1ccccc1F)N1CCn2c3ccccc3c(=O)c3cccc1c32 [Compound 7p, 3-(2-Fluorobenzoyl)-2,3-dihydro-1H,7H-pyrazino[3,2,1-de]acridin-7-one]",89.82 ± 0.36,68.3 ± 0.79,61.77 ± 0.42,51.43 ± 0.36,30.3 ± 0.84,90.43 ± 0.77,74.71 ± 0.22,65.8 ± 0.76,54.13 ± 0.37,21 ± 0.22,225 to 227,96.23 ± 0.74,93.99 ± 0.91,89.17 ± 0.81,82.34 ± 0.34,48.53 ± 0.12
"O=C(c1cccnc1)N1CCn2c3ccccc3c(=O)c3cccc1c32 [Compound 7b, 3-Nicotinoyl-2,3-dihydropyrazino[3,2,1-de]acridin-7(1H)-one]",86.22 ± 0.83,56.42 ± 0.47,46.91 ± 0.44,32.3 ± 0.16,19 ± 0.62,89.93 ± 0.66,65.63 ± 0.27,52.5 ± 0.82,38.1 ± 0.42,19.4 ± 0.35,231 to 233,98.93 ± 0.66,97.41 ± 0.57,96.44 ± 0.46,95.2 ± 0.29,55.1 ± 0.88
"O=C(c1ccccc1)N1CCn2c3ccccc3c(=O)c3cccc1c32 [Compound 7l, 3-Benzoyl-2,3-dihydro-1H,7H-pyrazino[3,2,1-de]acridin-7-one]",95.13 ± 0.85,82.38 ± 0.27,75.3 ± 0.81,65.86 ± 0.47,38.8 ± 0.88,97.17 ± 0.22,83.2 ± 0.99,76.71 ± 0.06,68.88 ± 0.47,30.6 ± 0.87,253 to 255,96.44 ± 0.31,94.13 ± 0.23,89.65 ± 0.12,82.83 ± 0.54,48.8 ± 0.67
"O=C(c1ccc(C(F)(F)F)cc1)N1CCn2c3ccccc3c(=O)c3cccc1c32 [Compound 7o, 3-(4-(Trifluoromethyl)benzoyl)-2,3-dihydro-1H,7H-pyrazino[3,2,1-de]acridin-7-one]",94.97 ± 0.73,76.63 ± 0.13,70 ± 0.93,61.26 ± 0.29,36.1 ± 0.64,93.92 ± 0.39,77.8 ± 0.91,69.54 ± 0.24,58.23 ± 0.26,24.3 ± 0.76,240 to 242,95.33 ± 0.63,91.17 ± 0.26,88.65 ± 0.11,80.68 ± 0.76,48.2 ± 0.79
